The values that follow come from patent US20050234046A1 (Kalypsys, Inc., priority 2004, published 2005).

Holding throughout (test): Transient transfection (transactivation) assay in CV-1 cells, GAL4-PPAR chimera, luciferase reporter
Format in all cases: cell-based
In general terms: A reporter such as luciferase makes a cellular process visible.

In test [1] the target is T1, PPAR delta (Homo sapiens, UniProt Q03181).
T1 construct: expressed in transfected cells; host or cells: CV-1 cells
T1 sequence (Q03181 211-439 limits assumed): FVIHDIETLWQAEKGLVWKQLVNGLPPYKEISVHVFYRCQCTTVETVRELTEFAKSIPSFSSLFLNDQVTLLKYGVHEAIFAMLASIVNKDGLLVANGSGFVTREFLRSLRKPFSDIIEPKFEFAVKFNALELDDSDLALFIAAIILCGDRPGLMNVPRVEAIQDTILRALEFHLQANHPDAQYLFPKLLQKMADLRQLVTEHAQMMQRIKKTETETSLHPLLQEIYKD

Test [2] deals with T2, PPAR alpha (Homo sapiens, UniProt Q07869).
T2 construct: expressed in transfected cells; host or cells: CV-1 cells
T2 sequence (Q07869 239-466 limits assumed): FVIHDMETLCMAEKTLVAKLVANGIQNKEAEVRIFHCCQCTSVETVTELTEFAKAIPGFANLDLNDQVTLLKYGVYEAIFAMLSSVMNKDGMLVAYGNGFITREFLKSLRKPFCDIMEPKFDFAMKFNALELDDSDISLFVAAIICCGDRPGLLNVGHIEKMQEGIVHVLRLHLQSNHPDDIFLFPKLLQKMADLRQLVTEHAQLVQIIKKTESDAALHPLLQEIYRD
Summed up:
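EC50 and efficacy come from a luciferase read-out after 20-24 hours of compound exposure (vehicle 1% DMSO) in transiently transfected CV-1 cells. These cells express a GAL4-PPAR ligand-binding-domain chimera plus a reporter with four or five GAL4 binding sites, and are kept in phenol-red free DME with 5% delipidated calf serum.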

Test [3] concerns the target T3, PPAR gamma (Homo sapiens, UniProt P37231).
T3 construct: expressed in transfected cells; host or cells: CV-1 cells
T3 sequence (P37231 238-503 limits assumed): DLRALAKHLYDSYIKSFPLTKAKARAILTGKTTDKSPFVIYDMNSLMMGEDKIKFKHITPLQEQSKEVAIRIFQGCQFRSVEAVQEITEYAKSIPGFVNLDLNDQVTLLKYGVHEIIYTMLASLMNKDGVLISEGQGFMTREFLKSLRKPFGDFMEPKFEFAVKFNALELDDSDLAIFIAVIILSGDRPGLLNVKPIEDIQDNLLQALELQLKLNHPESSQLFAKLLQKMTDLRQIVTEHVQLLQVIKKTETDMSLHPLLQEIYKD

What is called EC50 is the concentration that produces a half-maximal response. As to `Cc1ccc(S(=O)(=O)N2[C@H](C)CN(c3ccc(C(F)(F)F)c(F)c3)C[C@@H]2C)cc1CC(=O)O` [Example 68, {5-[4-(3-Fluoro-4-trifluoromethyl-phenyl)-2,6-dimethyl-piperazine-1-sulfonyl]-2-methyl-phenyl}-acetic acid], the EC50 in test [1] is under 5 µM; in test [2], under 5 µM; in test [3], 5 to 100 µM.

On to `Cc1ccc(S(=O)(=O)N2CCN(c3ccc(C(F)(F)F)cn3)[C@@H](C)C2)cc1CC(=O)O` [Example 70, {2-Methyl-5-[(S)-3-methyl-4-(5-trifluoromethyl-pyridin-2-yl)-piperazine-1-sulfonyl]-phenyl}-acetic acid], for which the EC50 in test [1], in test [2] and in test [3] was under 5 µM throughout.

Turning to `Cc1ccc(S(=O)(=O)N2C[C@@H](C)N(c3ccc(C(F)(F)F)cn3)[C@@H](C)C2)cc1CC(=O)O` [Example 72, {2-Methyl-5-[3,5-dimethyl-4-(5-trifluoromethyl-pyridin-2-yl)-piperazine-1-sulfonyl]-phenyl}-acetic acid], the figures for the EC50 in test [1], in test [2] and in test [3] were 5 to 100 µM, over 100 µM and over 100 µM, respectively.

As to `Cc1ccc(S(=O)(=O)N2CCN(c3ccc4occc4c3)CC2C)cc1CC(=O)O` (stereo not drawn) [Example 73, [5-(4-Benzofuran-5-yl-2-methyl-piperazine-1-sulfonyl)-2-methyl-phenyl]-acetic acid], the EC50 in test [1] was 5 to 100 µM; in test [2], over 100 µM; in test [3], over 100 µM.

For `Cc1ccc(S(=O)(=O)N2CCN(c3ccc(C(F)(F)F)nn3)CC2)cc1CC(=O)O` [Example 74], the EC50 in test [1] is 5 to 100 µM; in test [2] it was over 100 µM; in test [3], over 100 µM.

`COc1ccc(S(=O)(=O)N2CCN(c3ccc(C(F)(F)F)cc3)CC2)cc1CC(=O)O` [Example 75, {2-Methoxy-5-[4-(4-trifluoromethyl-phenyl)-piperazine-1-sulfonyl]-phenyl}-acetic acid]: the EC50 is under 5 µM in test [1], over 100 µM in test [2] and 5 to 100 µM in test [3].

Regarding `COc1ccc(S(=O)(=O)N2CCN(c3ccc(C(F)(F)F)cn3)CC2)cc1CC(=O)O` [Example 76, {2-Methoxy-5-[4-(5-trifluoromethyl-pyridin-2-yl)-piperazine-1-sulfonyl]-phenyl}-acetic acid], the EC50 in test [1] is under 5 µM; in test [2], over 100 µM; in test [3], 5 to 100 µM.

As to `COc1ccc(S(=O)(=O)N2CCN(c3ccc(C(F)(F)F)cn3)CC2C)cc1CC(=O)O` (stereo not drawn) [Example 77, {2-Methoxy-5-[2-methyl-4-(5-trifluoromethyl-pyridin-2-yl)-piperazine-1-sulfonyl]-phenyl}-acetic acid], the results for the EC50 in test [1], in test [2] and in test [3] were under 5 µM, over 100 µM and 5 to 100 µM, respectively.

Turning to `COc1ccc(S(=O)(=O)N2[C@H](C)CN(c3ccc(C(F)(F)F)cn3)C[C@@H]2C)cc1CC(=O)O` [Example 78, {5-[2,6-Dimethyl-4-(5-trifluoromethyl-pyridin-2-yl)-piperazine-1-sulfonyl]-2-methoxy-phenyl}-acetic acid], the EC50 is under 5 µM in test [1], over 100 µM in test [2] and over 100 µM in test [3].

Consider `COc1ccc(CC(=O)O)cc1S(=O)(=O)N1CCN(c2ccc(C(F)(F)F)cc2)CC1` [Example 79, {4-Methoxy-3-[4-(4-trifluoromethyl-phenyl)-piperazine-1-sulfonyl]-phenyl}-acetic acid], for which the EC50 in test [1] was under 5 µM; in test [2] it was over 100 µM; in test [3] it was 5 to 100 µM.

With `COc1ccc(CC(=O)O)cc1S(=O)(=O)N1CCN(c2ccc(C(F)(F)F)cn2)CC1` [Example 80], the EC50 in test [1] was under 5 µM; in test [2], over 100 µM; in test [3] it was 5 to 100 µM.

Take `COc1ccc(CC(=O)O)cc1S(=O)(=O)N1CCN(c2ccc(C(F)(F)F)cn2)CC1C` (stereo not drawn) [Example 81, {4-Methoxy-3-[2-methyl-4-(5-trifluoromethyl-pyridin-2-yl)-piperazine-1-sulfonyl]-phenyl}-acetic acid]: the values for the EC50 in test [1], in test [2] and in test [3] were 5 to 100 µM, over 100 µM and 5 to 100 µM, respectively.

Consider `COc1ccc(CC(=O)O)cc1S(=O)(=O)N1[C@H](C)CN(c2ccc(C(F)(F)F)cn2)C[C@@H]1C` [Example 82, {3-[2,6-Dimethyl-4-(5-trifluoromethyl-pyridin-2-yl)-piperazine-1-sulfonyl]-4-methoxy-phenyl}-acetic acid], for which the EC50 was 5 to 100 µM in test [1], over 100 µM in test [2] and over 100 µM in test [3].

Take `Cc1ccc(S(=O)(=O)N2[C@H](C)CN(c3ccc(Cl)c(Cl)c3)C[C@@H]2C)cc1CC(=O)O` [Example 83, {5-[4-(3,4-Dichloro-phenyl)-2,6-dimethyl-piperazine-1-sulfonyl]-2-methyl-phenyl}-acetic acid]: the EC50 in test [1] is under 5 µM; in test [2] it was over 100 µM; in test [3], over 100 µM.

As for `CN(C)Cc1cc(CC(=O)O)cc(S(=O)(=O)N2CCN(c3ccc(C(F)(F)F)cc3)CC2)c1` [Example 84, {3-Dimethylaminomethyl-5-[4-(4-trifluorometbyl-phenyl)-piperazine-1-sulfonyl]-phenyl}-acetic acid], the EC50 in test [1], in test [2] and in test [3] was over 100 µM in each case.

Turning to `COCc1cc(CC(=O)O)cc(S(=O)(=O)N2CCN(c3ccc(C(F)(F)F)cc3)CC2)c1` [Example 85, {3-Methoxymethyl-5-[4-(4-trifluoromethyl-phenyl)-piperazine-1-sulfonyl]-phenyl}-acetic acid], the EC50 in test [1] is 5 to 100 µM; in test [2], over 100 µM; in test [3], over 100 µM.

As for `Cc1ccc(S(=O)(=O)N2CCN(c3cnc(Cl)cn3)CC2)cc1CC(=O)O` [Example 86], the half-maximal effective concentration (EC50) in test [1], in test [2] and in test [3] was over 100 µM in each case.

For `Cc1ccc(S(=O)(=O)N2CCN(c3ccc(OC(F)(F)F)cc3)CC2)cc1CC(=O)O` [Example 87, {2-Methyl-5-[4-(4-trifluoromethoxy-phenyl)-piperazine-1-sulfonyl]-phenyl}-acetic acid], the figures for the EC50 in test [1], in test [2] and in test [3] were under 5 µM, under 5 µM and 5 to 100 µM, respectively.

`CCNCc1cc(CC(=O)O)cc(S(=O)(=O)N2CCN(c3ccc(C(F)(F)F)cc3)CC2)c1` [Example 88, {3-Ethylaminomethyl-5-[4-(4-trifluoromethyl-phenyl)-piperazine-1-sulfonyl]-phenyl}-acetic acid]: the 50% effective concentration (EC50) in test [1], in test [2] and in test [3] was over 100 µM in each case.

For the molecule `COCCNCc1cc(CC(=O)O)cc(S(=O)(=O)N2CCN(c3ccc(C(F)(F)F)cc3)CC2)c1` [Example 89, {3-[(2-Methoxy-ethylamino)-methyl]-5-[4-(4-trifluoromethyl-phenyl)-piperazine-1-sulfonyl]-phenyl}-acetic acid], the EC50 in test [1], in test [2] and in test [3] was over 100 µM each time.

On to `Cc1ccc(S(=O)(=O)N2CCN(c3ccc(C(F)(F)F)c(F)c3)[C@@H](C)C2)cc1CC(=O)O` [Example 90, {5-[4-(3-Fluoro-4-trifluoromethyl-phenyl)-3-(S)-methyl-piperazine-1-sulfonyl]-2-methyl-phenyl}-acetic acid], for which the EC50 was under 5 µM in test [1], under 5 µM in test [2] and 5 to 100 µM in test [3].

Regarding `O=C(O)Cc1cc(COCCO)cc(S(=O)(=O)N2CCN(c3ccc(C(F)(F)F)cc3)CC2)c1` [Example 91, {3-(2-Hydroxy-ethoxymethyl)-5-[4-(4-trifluoromethyl-phenyl)-piperazine-1-sulfonyl]-phenyl}-acetic acid], the EC50 in test [1], in test [2] and in test [3] was over 100 µM throughout.

With `O=C(O)Cc1cccc(S(=O)(=O)N2CCN(c3ccc(OC(F)(F)F)cc3)CC2)c1` [Example 92, {3-[4-(4-Trifluoromethoxy-phenyl)-piperazine-1-sulfonyl]-phenyl}-acetic acid], the EC50 in test [1] was under 5 µM; in test [2], under 5 µM; in test [3], over 100 µM.

Regarding `Cc1ccc(S(=O)(=O)N2CCN(c3ccc(C(F)(F)F)c(Cl)c3)CC2)cc1CC(=O)O` [Example 93, {5-[4-(3-Chloro-4-trifluorometbyl-phenyl)-piperazine-1-sulfonyl]-2-methyl-phenyl}-acetic acid], the EC50 is under 5 µM in test [1], under 5 µM in test [2] and 5 to 100 µM in test [3].
